Reference: US20090239841A1, “Diaryl Ureas as CB1 Antagonists” (priority 2004, published 2009)
Like-named read-outs stand apart in the source and are kept apart here.

Molecular target: T1, hCB1 (Homo sapiens, UniProt P21554)
T1 construct: made in house; host or cells: Sf9 insect cells (baculovirus), P2 membranes
Assay: Agonist-induced GTP binding (GTPγ35S) assay at CB1, Example 8
Assay type: biochemical
Outline: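 Membranes from Sf9 cells co-expressing hCB1 and heterotrimeric G-protein (10 μg protein) in Tris pH 7.4 buffer with 5 μM GDP. Test compounds (10^−10–10^−5 M) competed against 1 nM CP55,940 with […] GTPγ35S, 60 min at room temperature. Filter-bound radioactivity by scintillation, expressed as percent above basal.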

[1] = IC50 at CB1, determined as described in Example 8, read-out: IC50

T1 sequence (P21554 whole entry): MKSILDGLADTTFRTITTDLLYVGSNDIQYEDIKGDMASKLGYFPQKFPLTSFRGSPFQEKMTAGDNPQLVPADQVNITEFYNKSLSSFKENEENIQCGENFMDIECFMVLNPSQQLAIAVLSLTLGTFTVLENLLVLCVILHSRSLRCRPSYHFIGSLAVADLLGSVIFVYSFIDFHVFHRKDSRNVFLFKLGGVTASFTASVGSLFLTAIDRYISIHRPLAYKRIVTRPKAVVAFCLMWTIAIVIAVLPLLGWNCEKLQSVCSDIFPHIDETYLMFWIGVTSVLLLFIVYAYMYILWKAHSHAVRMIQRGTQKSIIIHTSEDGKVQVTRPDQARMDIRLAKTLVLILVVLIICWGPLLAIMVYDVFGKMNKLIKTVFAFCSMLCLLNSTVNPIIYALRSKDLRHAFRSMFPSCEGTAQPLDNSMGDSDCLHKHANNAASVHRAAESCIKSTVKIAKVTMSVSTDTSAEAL

Compound	IC50 [1] [µM]	IC50 [µM]
COCc1ccc(NC(=O)Nc2ccc(C(C)C)cc2)cc1 [Compound 572, 1-(4-isopropylphenyl)-3-[4-(methoxymethyl)phenyl]urea]	< 2	
CC(C)Oc1ccc(NC(=O)Nc2ccc(C(C)C)cc2)cc1 [Compound 575, 1-(4-isopropoxyphenyl)-3-(4-isopropylphenyl)urea]	< 2	
CC(C)c1ccccc1NC(=O)Nc1cccc(OC(F)F)c1 [Compound 576, 1-[3-(difluoromethoxy)phenyl]-3-(2-isopropylphenyl)urea]	< 2	
CC(C)c1ccc(NC(=O)Nc2cccc(OC(F)F)c2)cc1 [Compound 577, 1-[3-(difluoromethoxy)phenyl]-3-(4-isopropylphenyl)urea]	< 2	
N#CCc1ccc(NC(=O)Nc2ccc(OC(F)F)cc2)cc1 [Compound 581, 1-[4-(cyanomethyl)phenyl]-3-[4-(difluoromethoxy)phenyl]urea]	< 2	
COc1ccc(NC(=O)Nc2ccc(OCC#N)cc2)cc1 [Compound 589, 1-[4-(cyanomethoxy)phenyl]-3-(4-methoxyphenyl)urea]	< 2	
CCOC(=O)c1ccc(NC(=O)Nc2ccc(OC)cc2)cc1 [Compound 594, ethyl 4-({[(4-methoxyphenyl)amino]carbonyl}amino)benzoate]	< 2	
CCOC(=O)c1ccc(NC(=O)Nc2ccc(OCC)cc2)cc1 [Compound 595, ethyl 4-({[(4-ethoxyphenyl)amino]carbonyl}amino)benzoate]	< 2	
CCOc1ccc(NC(=O)Nc2ccc(S(C)(=O)=O)cc2)cc1 [Compound 596, 1-(4-ethoxyphenyl)-3-[4-(methylsulfonyl)phenyl]urea]	< 2	
N#CCOc1ccc(NC(=O)Nc2cccc([N+](=O)[O-])c2)cc1 [Compound 600, 1-[4-(cyanomethoxy)phenyl]-3-(3-nitrophenyl)urea]	< 2	
CCOC(=O)c1ccc(NC(=O)Nc2ccc(C(C)C)cc2)cc1 [Compound 602, ethyl 4-({[(4-isopropylphenyl)amino]carbonyl}amino)benzoate]	< 2	
CCN(CC)C(=O)c1ccccc1NC(=O)Nc1ccc(OC(F)F)cc1 [Compound 603]	< 2	
CC(C)(C)c1ccccc1NC(=O)Nc1ccc(OC(F)F)cc1 [Compound 604, 1-(2-tert-butylphenyl)-3-[4-(difluoromethoxy)phenyl]urea]	< 2	
O=C(Nc1ccc(OC(F)F)cc1)Nc1ccccc1Br [Compound 605, 1-(2-bromophenyl)-3-[4-(difluoromethoxy)phenyl]urea]	< 2	
O=C(Nc1ccc(OC(F)F)cc1)Nc1ccc(F)c(F)c1 [Compound 609, 1-[4-(difluoromethoxy)phenyl]-3-(3,4-difluorophenyl)urea]	< 2	
O=C(Nc1ccc(OC(F)(F)F)cc1)Nc1ccc2c(c1)CCC2 [Compound 610, 1-(2,3-dihydro-1H-inden-5-yl)-3-[4-(trifluoromethoxy)phenyl]urea]	< 2	
Cc1ccc(NC(=O)Nc2ccc(OC(F)F)cc2)cc1Cl [Compound 611, 1-(3-chloro-4-methylphenyl)-3-[4-(difluoromethoxy)phenyl]urea]	< 2	
CCOc1ccc(NC(=O)Nc2ccc(Cl)c(C)c2)cc1 [Compound 623, 1-(4-chloro-3-methylphenyl)-3-(4-ethoxyphenyl)urea]	< 2	
CCOc1ccc(NC(=O)Nc2ccc(Cl)c(Cl)c2)cc1 [Compound 624, 1-(3,4-dichlorophenyl)-3-(4-ethoxyphenyl)urea]	< 2	
Cc1ccc(NC(=O)Nc2ccc(C(C)C)cc2)cc1F [Compound 626, 1-(3-fluoro-4-methylphenyl)-3-(4-isopropylphenyl)urea]	< 2	
O=C(Nc1ccc(OC(F)F)cc1)Nc1cnccn1 [Compound 627, 1-[4-(difluoromethoxy)phenyl]-3-pyrazin-2-ylurea]	< 2	
O=C(Nc1ccc(OC(F)F)cc1)Nc1ccnc(Cl)c1 [Compound 628, 1-(2-chloropyridin-4-yl)-3-[4-(difluoromethoxy)phenyl]urea]		< 2

Further lines, with some results ahead:

IC50 [1] [µM]	Compound	IC50 [µM]
< 2	COCc1cccc(NC(=O)Nc2ccc(C(C)C)cc2)c1 [Compound 571, 1-(4-isopropylphenyl)-3-[3-(methoxymethyl)phenyl]urea]	
< 2	CCCOc1ccc(NC(=O)Nc2ccc(C(C)C)cc2)cc1 [Compound 573, 1-(4-isopropylphenyl)-3-(4-propoxyphenyl)urea]	
< 2	CC(C)Oc1cccc(NC(=O)Nc2ccc(C(C)C)cc2)c1 [Compound 574, 1-(3-isopropoxyphenyl)-3-(4-isopropylphenyl)urea]	
< 2	CCCc1ccccc1NC(=O)Nc1cccc(OC(F)F)c1 [Compound 578, 1-[3-(difluoromethoxy)phenyl]-3-(2-propylphenyl)urea]	
< 2	N#CCOc1ccc(NC(=O)Nc2ccc(OC(F)F)cc2)cc1 [Compound 582, 1-[4-(cyanomethoxy)phenyl]-3-[4-(difluoromethoxy)phenyl]urea]	
< 2	CCOC(=O)c1ccc(NC(=O)Nc2ccc(OC(F)F)cc2)cc1 [Compound 583, ethyl 4-[({[4-(difluoromethoxy)phenyl]amino}carbonyl)amino]benzoate]	
< 2	CC(C)OC(=O)c1ccc(NC(=O)Nc2ccc(OC(F)F)cc2)cc1 [Compound 584, isopropyl 4-[({[4-(difluoromethoxy)phenyl]amino}carbonyl)amino]benzoate]	
< 2	COc1cccc(NC(=O)Nc2ccc(CC#N)cc2)c1 [Compound 585, 1-[4-(cyanomethyl)phenyl]-3-(3-methoxyphenyl)urea]	
< 2	COc1ccc(NC(=O)Nc2ccc(CC#N)cc2)cc1 [Compound 586, 1-[4-(cyanomethyl)phenyl]-3-(4-methoxyphenyl)urea]	
< 2	CCOc1ccc(NC(=O)Nc2ccc(CC#N)cc2)cc1 [Compound 587, 1-[4-(cyanomethyl)phenyl]-3-(4-ethoxyphenyl)urea]	
< 2	COc1cccc(NC(=O)Nc2ccc(OCC#N)cc2)c1 [Compound 588, 1-[4-(cyanomethoxy)phenyl]-3-(3-methoxyphenyl)urea]	
< 2	CCOc1ccc(NC(=O)Nc2ccc(OCC#N)cc2)cc1 [Compound 590, 1-[4-(cyanomethoxy)phenyl]-3-(4-ethoxyphenyl)urea]	
< 2	CCC(=O)c1ccc(NC(=O)Nc2cccc(OC)c2)cc1 [Compound 591, 1-(3-methoxyphenyl)-3-(4-propionylphenyl)urea]	
< 2	CCOC(=O)c1ccc(NC(=O)Nc2cccc(OC)c2)cc1 [Compound 593, ethyl 4-({[(3-methoxyphenyl)amino]carbonyl}amino)benzoate]	
< 2	COc1cccc(NC(=O)Nc2ccc(C(=O)OC(C)C)cc2)c1 [Compound 597, isopropyl 4-({[(3-methoxyphenyl)amino]carbonyl}amino)benzoate]	
< 2	COc1ccc(NC(=O)Nc2ccc(C(=O)OC(C)C)cc2)cc1 [Compound 598, isopropyl 4-({[(4-methoxyphenyl)amino]carbonyl}amino)benzoate]	

IC50 [1] [µM]	Compound	IC50 [µM]
< 2	CCOc1ccc(NC(=O)Nc2ccc(C(=O)OC(C)C)cc2)cc1 [Compound 599, isopropyl 4-({[(4-ethoxyphenyl)amino]carbonyl}amino)benzoate]	
< 2	Cc1ccc(NC(=O)Nc2ccc(OC(F)F)cc2)cc1F [Compound 606, 1-[4-(difluoromethoxy)phenyl]-3-(3-fluoro-4-methylphenyl)urea]	
< 2	Cc1ccc(NC(=O)Nc2ccc(OC(F)(F)F)cc2)cc1F [Compound 607, 1-(3-fluoro-4-methylphenyl)-3-[4-(trifluoromethoxy)phenyl]urea]	
< 2	Cc1cc(NC(=O)Nc2ccc(OC(F)F)cc2)ccc1F [Compound 608, 1-[4-(difluoromethoxy)phenyl]-3-(4-fluoro-3-methylphenyl)urea]	
< 2	Cc1cc(NC(=O)Nc2ccc(OC(F)F)cc2)ccc1Cl [Compound 612, 1-(4-chloro-3-methylphenyl)-3-[4-(difluoromethoxy)phenyl]urea]	
< 2	COc1cccc(NC(=O)Nc2ccc(C)c(F)c2)c1 [Compound 614, 1-(3-fluoro-4-methylphenyl)-3-(3-methoxyphenyl)urea]	
< 2	COc1ccc(NC(=O)Nc2ccc(C)c(F)c2)cc1 [Compound 615, 1-(3-fluoro-4-methylphenyl)-3-(4-methoxyphenyl)urea]	
< 2	CCOc1ccc(NC(=O)Nc2ccc(C)c(F)c2)cc1 [Compound 616, 1-(4-ethoxyphenyl)-3-(3-fluoro-4-methylphenyl)urea]	
< 2	CCOc1ccc(NC(=O)Nc2ccc(F)c(C)c2)cc1 [Compound 617, 1-(4-ethoxyphenyl)-3-(4-fluoro-3-methylphenyl)urea]	
< 2	CCOc1ccc(NC(=O)Nc2ccc(F)c(F)c2)cc1 [Compound 619, 1-(3,4-difluorophenyl)-3-(4-ethoxyphenyl)urea]	
< 2	COc1ccc(NC(=O)Nc2ccc3c(c2)CCC3)cc1 [Compound 620, 1-(2,3-dihydro-1H-inden-5-yl)-3-(4-methoxyphenyl)urea]	
< 2	COc1cccc(NC(=O)Nc2ccc(C)c(Cl)c2)c1 [Compound 621, 1-(3-chloro-4-methylphenyl)-3-(3-methoxyphenyl)urea]	
< 2	COc1ccc(NC(=O)Nc2ccc(C)c(Cl)c2)cc1 [Compound 622, 1-(3-chloro-4-methylphenyl)-3-(4-methoxyphenyl)urea]	
< 2	CCOc1ccc(NC(=O)Nc2ccc(Cl)c(C(F)(F)F)c2)cc1 [Compound 625, 1-[4-chloro-3-(trifluoromethyl)phenyl]-3-(4-ethoxyphenyl)urea]	
< 2	CCOc1ccc(NC(=O)Nc2ccc(Cl)nc2)cc1 [Compound 629, 1-(6-chloropyridin-3-yl)-3-(4-ethoxyphenyl)urea]	
